We go through 37 compounds from ChEMBL document CHEMBL4706612 (Eur J Med Chem, 2021).

Assay [1] is described as follows: Inhibition of Vibrio parahaemolyticus MetAp1a by Morrison method.
A short description of assay [2]: Inhibition of Vibrio coralliilyticus MetAp1a by Morrison method.
Assay [3] can be described thus: Inhibition of Vibrio cholerae MetAp1a by Morrison method.
A short description of assay [4]: Inhibition of human MetAp1a by Morrison method.

pKi: −log10 of the molar value.

As to `Oc1nc(-c2ccccn2)nc2c1CSCC2`, the pKi in assay [1] is 4.62; in assay [2], 5.12; in assay [3], 4.41; in assay [4] it was 6.12.
Turning to `Cc1nc(-c2ccccn2)nc(SCC(=O)N2CCOCC2)c1Cl`, the pKi is 4.90 in assay [1], 5.10 in assay [3] and 6.77 in assay [4].
On to `Cc1cc(S)nc(-c2ccccn2)n1`, for which the pKi in assay [1] was 6.70; in assay [2], 4.79; in assay [3], 6.92; in assay [4], 6.82.
Regarding `Cc1cc(Oc2ccc(Cl)cc2)nc(-c2ccccn2)n1`, the pKi is 6.46 in assay [1], 6.14 in assay [3] and 6.64 in assay [4].
For `Cc1nc(-c2ccccn2)nc(N(C)c2ccccc2)c1Cl` the same measures were 6.62, 6.31 and 6.11.
With `COc1ccc(C(=O)CSc2nc(-c3ccccn3)nc(C)c2Cl)cc1`, the negative logarithm of the Ki (pKi) in assay [1] is 5.24; in assay [3] it was 5.84.
Consider `Cc1nc(-c2ccccn2)nc(SCC(=O)c2ccc(F)cc2)c1Cl`, for which the pKi in assay [1] was 5.72; in assay [3], 5.72; in assay [4], 5.63.
On to `Cc1nc(-c2ccccn2)nc(N2CCOCC2)c1Cl`, for which the pKi in assay [1] is 5.79; in assay [3], 6.06; in assay [4], 6.96.
As for `CC(C)S(=O)(=O)c1cnc(-c2ccccn2)nc1N`, the pKi was 4.46 in assay [1], 4.31 in assay [2], 7.22 in assay [3] and 6.66 in assay [4].
For the compound `Cc1nc(-c2ccccn2)nc(NCCNc2cccc(C(F)(F)F)n2)c1Cl`, the pKi in assay [1] was 5.10; in assay [3], 5.45.
The matching figures for `Cc1nc(-c2ccccn2)nc(NC2CCN(c3ncc(C(F)(F)F)cc3Cl)CC2)c1Cl`: 5.34 and 5.32.
For `Cc1nc(-c2ccccn2)nc(N2CCN(c3ncnc4scc(-c5ccccc5)c34)CC2)c1Cl` the same measures were 5.71 and 6.32.
Turning to `Cc1nc(-c2ccccn2)nc(N2CCCN(Cc3ccc(Cl)cc3Cl)CC2)c1Cl`, the figures for the pKi in assay [1], in assay [3] and in assay [4] were 5.49, 6.14 and 6.07, respectively.
In the case of `Oc1cc(C(F)(F)F)nc(-c2ccccn2)n1`, the pKi was 7.05 in assay [1], 4.88 in assay [2], 6.82 in assay [3] and 7.00 in assay [4].
In turn, `FC(F)(F)c1nc(-c2ccccn2)ncc1-c1nnnn1-c1ccc(Cl)cc1` showed a pKi in assay [1] of 4.97.
For the compound `FC(F)(F)c1cccc(-c2nc(-c3ccccn3)ncc2-c2nnnn2-c2ccccc2)c1`, the pKi in assay [1] is 5.56; in assay [3], 5.95; in assay [4], 4.36.
For `Cc1nc(-c2ccccn2)nc(N2CCN(C)CC2)c1Cl` the same measures were 6.32, 6.70 and 6.54.
For the compound `Cc1cc(Oc2cc(Cl)cc(Cl)c2)nc(-c2ccccn2)n1`, the pKi in assay [1] was 6.55; in assay [3] it was 7.30; in assay [4], 5.38.
As to `Cc1cc(O)nc(-c2ccccn2)n1`, the negative-log Ki (pKi) is 6.68 in assay [1], 5.17 in assay [2], 6.52 in assay [3] and 6.21 in assay [4].
For `CSc1nc(-c2ccccn2)nc(N)c1C#N`, the figures for the pKi in assay [1], in assay [3] and in assay [4] were 6.89, 6.17 and 6.68, respectively.
As to `Cc1nc(-c2ccccn2)nc(O)c1Cc1c(Cl)cccc1Cl`, the pKi in assay [1] was 6.80; in assay [2] it was 4.99; in assay [3], 6.64.
`Cc1nc(-c2ccccn2)nc(O)c1CC1CC1`: the pKi in assay [1] was 7.10; in assay [2], 5.03; in assay [3], 6.49; in assay [4], 6.89.
Consider `FC(F)(F)c1cc(Nc2cc(Cl)cc(Cl)c2)nc(-c2ccccn2)n1`, for which the pKi in assay [1] is 6.85; in assay [3], 7.22.
On to `CCCCCc1c(C)nc(-c2ccccn2)nc1O`, for which the pKi is 5.48 in assay [1], 4.94 in assay [2], 6.14 in assay [3] and 7.15 in assay [4].
For `C=CC(C)c1c(O)nc(-c2ccccn2)nc1CCC` (centres undefined) the same measures were 6.82, 5.14, 6.51 and 7.10.
For `CCCc1nc(-c2ccccn2)nc(O)c1CC1CC1`, the pKi in assay [1] was 5.95; in assay [2] it was 5.04; in assay [3], 7.15; in assay [4] it was 5.86.
For `Nc1cc(O)nc(-c2ccccn2)n1`, the pKi in assay [1] was 6.62; in assay [2], 4.93; in assay [3], 7.10; in assay [4], 6.19.
Take `CCOC(=O)c1cnc(-c2ccccn2)nc1O`: the pKi was 5.85 in assay [1], 5.23 in assay [2], 6.96 in assay [3] and 6.29 in assay [4].
Consider `CC(=O)Nc1cc(O)nc(-c2ccccn2)n1`, for which the pKi was 5.95 in assay [1], 5.29 in assay [2], 7.05 in assay [3] and 5.83 in assay [4].
With `Cc1nc(-c2ccc(C(F)(F)F)cn2)nc(N2CCCCC2)c1Cl`, the pKi is 5.34 in assay [3] and 4.25 in assay [4].
In the case of `Cc1nc(-c2ccc(C(F)(F)F)cn2)nc(Sc2ccc(Cl)cc2)c1Cl`, the pKi was 4.79 in assay [1] and 5.16 in assay [3].
As for `c1ccc(-c2ccccn2)nc1`, the pKi in assay [1] is 5.54; in assay [2], 5.55; in assay [3], 5.55; in assay [4], 6.41.
In the case of `Cc1nc(-c2ccccn2)nc(N2CCN(CCO)CC2)c1Cl`, the pKi in assay [1] was 5.43; in assay [3], 6.22.
For `Cc1nc(-c2ccccn2)nc(NCCc2ccccc2)c1Cl` the same measures were 5.43 and 6.29.
In the case of `CCN(CC)C(=O)Oc1nc(-c2ccccn2)nc(COC)c1CC1CC1`, the pKi in assay [1] is 5.55; in assay [3], 5.61; in assay [4], 6.35.
For the compound `COCc1nc(-c2ccccn2)nc(O)c1CC1CC1`, the pKi in assay [1] was 6.60; in assay [2], 4.56; in assay [3] it was 6.80; in assay [4] it was 6.54.
Regarding `CCCc1nc(-c2ccccn2)nc(OC(=O)N(C)C)c1Cc1c(F)cccc1Cl`, the pKi was 6.22 in assay [1], 7.15 in assay [3] and 6.74 in assay [4].
